Experimental data reported in patent US20250276964A1 (Novartis AG, priority 2021, published 2025).

Biological target: T1, WIZ (Homo sapiens, UniProt O95785+Q96SW2)
T1 construct: expressed in transfected cells
Test: Quantification of WIZ protein levels in HiBit tag fusion protein assay (WIZ HiBit assay in 293T cells)
Type: cell-based
Details: for Dmax at 25 µM / remaining activity at 25 µM: HEK-293T; for Dmax at 25 µM: 100 minus Amax at 25 uM, read-out: % degradation of WIZ (100-Amax); for remaining activity at 25 µM: DMSO-normalized, curve-fitted percentage of WIZ-HiBit remaining at 25 uM, read-out: WIZ Amax; for DC50: WIZ HiBit assay in 293T cells, 10-point, 5-fold dilution, highest concentration 25 μM, about 18 hours, read-out: WIZ AC50
Summary of the method: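 293T cells stably carrying single-copy HiBit-WIZ (HSVTK promoter) treated ~18 h at 37 °C with 10-point, 5-fold dilutions, top 25 μM. Lytic HiBit luminescence read; Amax is DMSO-normalised, curve-fitted % WIZ-HiBit remaining at 25 uM.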

T1 sequence (O95785 whole entry): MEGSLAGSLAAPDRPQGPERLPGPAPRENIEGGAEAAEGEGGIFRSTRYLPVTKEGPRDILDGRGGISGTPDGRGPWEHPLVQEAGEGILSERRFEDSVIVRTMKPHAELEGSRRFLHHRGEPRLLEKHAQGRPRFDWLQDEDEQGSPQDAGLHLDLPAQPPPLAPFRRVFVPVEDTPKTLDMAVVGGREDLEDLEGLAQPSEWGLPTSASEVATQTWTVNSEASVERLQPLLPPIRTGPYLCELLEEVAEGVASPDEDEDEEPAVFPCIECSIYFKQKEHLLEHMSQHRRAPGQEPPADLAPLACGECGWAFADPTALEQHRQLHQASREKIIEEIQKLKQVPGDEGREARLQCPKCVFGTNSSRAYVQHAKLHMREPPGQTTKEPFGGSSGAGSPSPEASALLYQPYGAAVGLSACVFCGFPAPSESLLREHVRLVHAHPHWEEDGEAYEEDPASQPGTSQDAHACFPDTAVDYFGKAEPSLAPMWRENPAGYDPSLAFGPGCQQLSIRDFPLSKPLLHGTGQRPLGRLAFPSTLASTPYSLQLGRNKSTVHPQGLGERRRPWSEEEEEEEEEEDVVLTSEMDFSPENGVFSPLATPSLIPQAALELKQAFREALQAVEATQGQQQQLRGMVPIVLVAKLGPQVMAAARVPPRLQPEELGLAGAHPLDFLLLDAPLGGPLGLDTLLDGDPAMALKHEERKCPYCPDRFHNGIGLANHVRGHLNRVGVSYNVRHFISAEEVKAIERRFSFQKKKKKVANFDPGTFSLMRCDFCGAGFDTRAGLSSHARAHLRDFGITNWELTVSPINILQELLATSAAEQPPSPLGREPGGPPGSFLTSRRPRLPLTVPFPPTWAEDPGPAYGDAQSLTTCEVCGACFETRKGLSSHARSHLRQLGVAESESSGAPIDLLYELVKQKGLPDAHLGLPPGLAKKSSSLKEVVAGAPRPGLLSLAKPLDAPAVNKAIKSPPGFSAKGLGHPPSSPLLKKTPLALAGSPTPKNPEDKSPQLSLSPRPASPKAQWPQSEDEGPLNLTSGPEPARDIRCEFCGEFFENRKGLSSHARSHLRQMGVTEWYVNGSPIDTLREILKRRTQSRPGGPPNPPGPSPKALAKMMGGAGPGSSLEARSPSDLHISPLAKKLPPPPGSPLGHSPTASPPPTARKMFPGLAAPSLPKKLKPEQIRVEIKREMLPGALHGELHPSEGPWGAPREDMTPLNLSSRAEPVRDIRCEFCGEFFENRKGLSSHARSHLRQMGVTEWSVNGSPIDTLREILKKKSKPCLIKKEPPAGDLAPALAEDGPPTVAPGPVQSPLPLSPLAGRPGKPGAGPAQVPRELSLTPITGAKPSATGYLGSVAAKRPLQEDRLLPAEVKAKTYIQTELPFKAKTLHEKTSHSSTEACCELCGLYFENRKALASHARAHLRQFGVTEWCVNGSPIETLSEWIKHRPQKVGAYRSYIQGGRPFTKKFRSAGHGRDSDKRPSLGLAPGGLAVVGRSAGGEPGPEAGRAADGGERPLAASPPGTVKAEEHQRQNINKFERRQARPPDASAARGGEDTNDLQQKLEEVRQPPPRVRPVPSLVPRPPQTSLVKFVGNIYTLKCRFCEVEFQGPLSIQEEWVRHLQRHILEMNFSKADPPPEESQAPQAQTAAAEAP
T1 sequence (Q96SW2 whole entry): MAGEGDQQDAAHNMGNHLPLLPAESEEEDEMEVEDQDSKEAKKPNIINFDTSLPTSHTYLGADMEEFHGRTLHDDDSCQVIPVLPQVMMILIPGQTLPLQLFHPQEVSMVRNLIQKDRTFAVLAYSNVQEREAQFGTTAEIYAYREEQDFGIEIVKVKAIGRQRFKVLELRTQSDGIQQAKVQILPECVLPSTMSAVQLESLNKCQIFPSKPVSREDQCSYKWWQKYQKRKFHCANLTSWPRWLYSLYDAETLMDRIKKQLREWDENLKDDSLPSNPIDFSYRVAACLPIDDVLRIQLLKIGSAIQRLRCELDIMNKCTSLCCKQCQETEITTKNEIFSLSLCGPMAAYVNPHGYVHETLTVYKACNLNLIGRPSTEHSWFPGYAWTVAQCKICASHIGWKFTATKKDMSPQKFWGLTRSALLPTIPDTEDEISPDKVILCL
T1 sequence (Q16531 whole entry partner): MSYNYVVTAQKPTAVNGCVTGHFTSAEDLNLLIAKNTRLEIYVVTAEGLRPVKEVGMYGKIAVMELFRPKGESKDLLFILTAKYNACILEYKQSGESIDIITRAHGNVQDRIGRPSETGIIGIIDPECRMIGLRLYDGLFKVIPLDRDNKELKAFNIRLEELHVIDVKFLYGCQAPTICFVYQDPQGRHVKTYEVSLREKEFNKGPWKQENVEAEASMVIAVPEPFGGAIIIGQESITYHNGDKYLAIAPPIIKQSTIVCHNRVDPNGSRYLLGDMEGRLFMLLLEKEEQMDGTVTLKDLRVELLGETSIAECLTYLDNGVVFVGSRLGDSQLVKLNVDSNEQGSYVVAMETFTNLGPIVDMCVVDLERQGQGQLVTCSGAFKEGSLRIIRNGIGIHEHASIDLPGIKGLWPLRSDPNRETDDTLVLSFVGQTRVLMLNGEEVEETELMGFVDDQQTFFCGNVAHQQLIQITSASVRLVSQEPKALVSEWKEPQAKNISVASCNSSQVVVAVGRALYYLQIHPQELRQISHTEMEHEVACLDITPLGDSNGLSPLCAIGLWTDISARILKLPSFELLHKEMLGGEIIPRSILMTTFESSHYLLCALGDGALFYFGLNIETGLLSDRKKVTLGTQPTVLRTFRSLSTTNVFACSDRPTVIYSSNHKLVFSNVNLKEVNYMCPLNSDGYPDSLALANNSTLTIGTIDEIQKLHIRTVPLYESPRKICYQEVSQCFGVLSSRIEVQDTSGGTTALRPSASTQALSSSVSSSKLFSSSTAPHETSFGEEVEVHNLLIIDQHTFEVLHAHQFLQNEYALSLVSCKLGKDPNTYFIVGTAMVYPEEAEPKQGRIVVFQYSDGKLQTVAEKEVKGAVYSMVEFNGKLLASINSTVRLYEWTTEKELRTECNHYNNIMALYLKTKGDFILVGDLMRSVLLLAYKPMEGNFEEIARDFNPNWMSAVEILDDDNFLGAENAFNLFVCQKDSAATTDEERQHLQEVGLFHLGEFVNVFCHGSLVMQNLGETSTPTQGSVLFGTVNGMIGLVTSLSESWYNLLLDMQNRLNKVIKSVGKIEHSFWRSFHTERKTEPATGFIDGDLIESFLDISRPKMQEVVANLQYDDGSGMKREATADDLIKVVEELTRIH

| Dmax at 25 µM [%] | remaining activity at 25 µM [%] | DC50 [nM] | Structure (SMILES) |
| --- | --- | --- | --- |
| 83 | 17 | 6 | CC[C@@H]1CN(C)CCN1Cc1ccc2onc(N3CCC(=O)NC3=O)c2c1 [Example 87, (R)-1-(5-((2-ethyl-4-methylpiperazin-1-yl)methyl)benzo[d]isoxazol-3-yl)dihydropyrimidine-2,4(1H,3H)-dione] |
| 91 | 9 | 10 | CN1CCN(Cc2ccc3onc(N4CCC(=O)NC4=O)c3c2)CC1 [Example 22, 1-(5-((4-methylpiperazin-1-yl)methyl)benzo[d]isoxazol-3-yl)dihydropyrimidine-2,4(1H,3H)-dione] |
| 91 | 9 | 7.2 | O=C1CCN(c2noc3ccc(CC4CCN(CC5CCCCC5)CC4)cc23)C(=O)N1 [Example 1, 1-(5-((1-(cyclohexylmethyl)piperidin-4-yl)methyl)benzo[d]isoxazol-3-yl)dihydropyrimidine-2,4(1H,3H)-dione] |
| 81 | 19 | 98 | CCS(=O)(=O)N1CCN(Cc2ccc3onc(N4CCC(=O)NC4=O)c3c2)[C@H](C)C1 [Example 72, (R)-1-(5-((4-(ethylsulfonyl)-2-methylpiperazin-1-yl)methyl)benzo[d]isoxazol-3-yl)dihydropyrimidine-2,4(1H,3H)-dione] |
| 85 | 15 | 61 | O=C1CCN(c2noc3ccc(CN4CCN5CCOC[C@@H]5C4)cc23)C(=O)N1 [Example 111, (S)-1-(5-((hexahydropyrazino[2,1-c][1,4]oxazin-8(1H)-yl)methyl)benzo[d]isoxazol-3-yl)dihydropyrimidine-2,4(1H,3H)-dione] |
| 83 | 17 | 93 | CS(=O)(=O)N1CCN(Cc2ccc3onc(N4CCC(=O)NC4=O)c3c2)CC1 [Example 83, 1-(5-((4-(methylsulfonyl)piperazin-1-yl)methyl)benzo[d]isoxazol-3-yl)dihydropyrimidine-2,4(1H,3H)-dione] |
| 90 | 10 | 11 | O=C1CCN(c2noc3ccc(CC4CCN(CCC5CCCCC5)CC4)cc23)C(=O)N1 [Example 11, 1-(5-((1-(2-cyclohexylethyl)piperidin-4-yl)methyl)benzo[d]isoxazol-3-yl)dihydropyrimidine-2,4(1H,3H)-dione] |
| 89 | 11 | 40 | CC(C)CN1CCN(Cc2ccc3onc(N4CCC(=O)NC4=O)c3c2)C[C@H]1C [Example 34, (R)-1-(5-((4-isobutyl-3-methylpiperazin-1-yl)methyl)benzo[d]isoxazol-3-yl)dihydropyrimidine-2,4(1H,3H)-dione] |
| 78 | 22 | 193 | O=C1CCN(c2noc3ccc(CN4CCN5C(=O)COC[C@H]5C4)cc23)C(=O)N1 [Example 116, (R)-1-(5-((4-oxohexahydropyrazino[2,1-c][1,4]oxazin-8(1H)-yl)methyl)benzo[d]isoxazol-3-yl)dihydropyrimidine-2,4(1H,3H)-dione] |
| 82 | 18 | 188 | O=C1CCN(c2noc3ccc(CN4C[C@@H]5C[C@H]4CN5CC4CCOCC4)cc23)C(=O)N1 [Example 95, 1-(5-(((1S,4S)-5-((tetrahydro-2H-pyran-4-yl)methyl)-2,5-diazabicyclo[2.2.1]heptan-2-yl)methyl)benzo[d]isoxazol-3-yl)dihydropyrimidine-2,4(1H,3H)-dione] |
| 91 | 9 | 4.5 | CC(C)CN1CCN(Cc2ccc3onc(N4CCC(=O)NC4=O)c3c2)C[C@@H]1C [Example 30, (S)-1-(5-((4-isobutyl-3-methylpiperazin-1-yl)methyl)benzo[d]isoxazol-3-yl)dihydropyrimidine-2,4(1H,3H)-dione] |
| 91 | 9 | 18 | O=C1CCN(c2noc3ccc(CC4CCN(Cc5cccc(F)c5)CC4)cc23)C(=O)N1 [Example 7, 1-(5-((1-(3-fluorobenzyl)piperidin-4-yl)methyl)benzo[d]isoxazol-3-yl)dihydropyrimidine-2,4(1H,3H)-dione] |
| 87 | 13 | 279 | O=C1CCN(c2noc3ccc(CC4CCN(CC5CCCCC5)C4)cc23)C(=O)N1 (stereo not drawn) [Example 49, 1-(5-((1-(cyclohexylmethyl)pyrrolidin-3-yl)methyl)benzo[d]isoxazol-3-yl)dihydropyrimidine-2,4(1H,3H)-dione] |
| 82 | 18 | 4 | CN1CCN(Cc2ccc3onc(N4CCC(=O)NC4=O)c3c2)CC1(C)C [Example 92, 1-(5-((3,3,4-trimethylpiperazin-1-yl)methyl)benzo[d]isoxazol-3-yl)dihydropyrimidine-2,4(1H,3H)-dione] |
| 61 | 39 | 2180 | CC(C)(C)OC(=O)N1C[C@@H]2C[C@H]1CN2Cc1ccc2onc(N3CCC(=O)NC3=O)c2c1 [Example 93, tert-butyl (1S,4S)-5-((3-(2,4-dioxotetrahydropyrimidin-1(2H)-yl)benzo[d]isoxazol-5-yl)methyl)-2,5-diazabicyclo[2.2.1]heptane-2-carboxylate] |
| 76 | 24 | 364 | CN1C[C@@H]2C[C@H]1CN2Cc1ccc2onc(N3CCC(=O)NC3=O)c2c1 [Example 94] |
| 90 | 10 | 5.4 | C[C@H]1CN(Cc2ccc3onc(N4CCC(=O)NC4=O)c3c2)CCN1CC1CCCCC1 [Example 28, (S)-1-(5-((4-(cyclohexylmethyl)-3-methylpiperazin-1-yl)methyl)benzo[d]isoxazol-3-yl)dihydropyrimidine-2,4(1H,3H)-dione] |
| 92 | 8 | 10 | O=C1CCN(c2noc3ccc(CC4CCN(CC5CCC5)CC4)cc23)C(=O)N1 [Example 3, 1-(5-((1-(cyclobutylmethyl)piperidin-4-yl)methyl)benzo[d]isoxazol-3-yl)dihydropyrimidine-2,4(1H,3H)-dione] |
| 73 | 27 | 355 | C[C@@H]1CN(CC2CCOCC2)C[C@H](C)N1Cc1ccc2onc(N3CCC(=O)NC3=O)c2c1 [Example 109, 1-(5-(((2R,6S)-2,6-dimethyl-4-((tetrahydro-2H-pyran-4-yl)methyl)piperazin-1-yl)methyl)benzo[d]isoxazol-3-yl)dihydropyrimidine-2,4(1H,3H)-dione] |

| Structure (SMILES) | Dmax at 25 µM [%] | remaining activity at 25 µM [%] | DC50 [nM] |
| --- | --- | --- | --- |
| CN1[C@@H]2CC[C@H]1CN(Cc1ccc3onc(N4CCC(=O)NC4=O)c3c1)C2 [Example 101, 1-(5-(((1R,5S)-8-methyl-3,8-diazabicyclo[3.2.1]octan-3-yl)methyl)benzo[d]isoxazol-3-yl)dihydropyrimidine-2,4(1H,3H)-dione] | 78 | 22 | 13 |
| CN1C[C@H]2CC[C@@H](C1)N2Cc1ccc2onc(N3CCC(=O)NC3=O)c2c1 [Example 103, 1-(5-(((1R,5S)-3-methyl-3,8-diazabicyclo[3.2.1]octan-8-yl)methyl)benzo[d]isoxazol-3-yl)dihydropyrimidine-2,4(1H,3H)-dione] | 86 | 14 | 68 |
